Data taken from ChEMBL document CHEMBL5108047 (J Med Chem, 2022).

Experiments:
[1] = Inhibition of Alt-Ej-mediated DNA repair in LIG4 knock out HEK293T cells; assay type: functional, cell-based, Homo sapiens; settings: hek-293t
[2] = Volume of distribution at steady state in CD-1 mouse at 2.5 mg/kg, po or 2.5 mg/kg, iv measured upto 24 hrs by reverse phase LCMS analysis; assay type: ADME, organism-based; settings: in vivo
[3] = AUC in CD-1 nude mouse at 80 mg/kg, po administered twice daily and measured on day 7 by HPLC-MS analysis; assay type: ADME, organism-based; parameters: time 7 day, dose 80 mg/kg, route po; settings: in vivo
[4] = Toxicity in CD-1 mouse xenografted with BRCA2 knock in human HCT-116 cells assessed as drug tolerance at 80 mg/kg, po administered twice a day for 21 days; assay type: organism-based; settings: in vivo, 504 h, time 21 day
[5] = biological target: T1, DNA polymerase subunit gamma-1 (Homo sapiens, UniProt P54098); test: Inhibition of human DNA polymerase gamma
T1 sequence (P54098 whole entry): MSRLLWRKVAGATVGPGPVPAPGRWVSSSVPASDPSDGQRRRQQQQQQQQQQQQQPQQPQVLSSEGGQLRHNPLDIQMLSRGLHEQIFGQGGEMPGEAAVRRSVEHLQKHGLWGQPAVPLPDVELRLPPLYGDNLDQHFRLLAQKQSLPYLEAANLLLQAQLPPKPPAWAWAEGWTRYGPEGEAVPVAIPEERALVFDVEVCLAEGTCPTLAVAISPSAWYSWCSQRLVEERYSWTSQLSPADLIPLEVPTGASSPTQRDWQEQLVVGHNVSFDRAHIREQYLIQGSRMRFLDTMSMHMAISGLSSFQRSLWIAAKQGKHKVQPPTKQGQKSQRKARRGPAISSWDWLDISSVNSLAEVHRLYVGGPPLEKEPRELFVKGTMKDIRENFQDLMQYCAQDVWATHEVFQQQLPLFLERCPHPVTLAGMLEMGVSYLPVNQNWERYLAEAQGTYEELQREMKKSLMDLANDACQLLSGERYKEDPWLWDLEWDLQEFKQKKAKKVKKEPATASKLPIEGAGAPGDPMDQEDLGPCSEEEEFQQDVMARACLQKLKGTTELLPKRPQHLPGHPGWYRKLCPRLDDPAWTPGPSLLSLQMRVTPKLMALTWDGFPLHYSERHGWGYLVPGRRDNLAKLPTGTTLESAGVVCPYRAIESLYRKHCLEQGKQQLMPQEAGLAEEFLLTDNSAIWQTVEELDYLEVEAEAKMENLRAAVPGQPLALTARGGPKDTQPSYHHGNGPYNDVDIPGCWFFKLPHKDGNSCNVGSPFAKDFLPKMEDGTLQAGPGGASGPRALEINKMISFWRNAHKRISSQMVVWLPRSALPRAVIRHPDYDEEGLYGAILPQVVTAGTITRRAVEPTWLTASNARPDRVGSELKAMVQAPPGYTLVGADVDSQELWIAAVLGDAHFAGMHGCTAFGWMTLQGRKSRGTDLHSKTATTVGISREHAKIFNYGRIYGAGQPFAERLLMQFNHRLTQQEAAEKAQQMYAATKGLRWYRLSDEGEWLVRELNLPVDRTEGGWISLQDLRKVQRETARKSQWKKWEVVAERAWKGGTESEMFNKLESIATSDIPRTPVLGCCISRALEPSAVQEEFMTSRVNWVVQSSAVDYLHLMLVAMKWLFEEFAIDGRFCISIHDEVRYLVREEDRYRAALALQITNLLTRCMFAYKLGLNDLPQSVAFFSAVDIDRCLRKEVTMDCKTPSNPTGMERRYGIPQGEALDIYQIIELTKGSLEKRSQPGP

[6] = biological target: T2, DNA polymerase alpha catalytic subunit (Homo sapiens, UniProt P09884); test: Inhibition of human DNA polymerase alpha
T2 sequence (P09884 whole entry): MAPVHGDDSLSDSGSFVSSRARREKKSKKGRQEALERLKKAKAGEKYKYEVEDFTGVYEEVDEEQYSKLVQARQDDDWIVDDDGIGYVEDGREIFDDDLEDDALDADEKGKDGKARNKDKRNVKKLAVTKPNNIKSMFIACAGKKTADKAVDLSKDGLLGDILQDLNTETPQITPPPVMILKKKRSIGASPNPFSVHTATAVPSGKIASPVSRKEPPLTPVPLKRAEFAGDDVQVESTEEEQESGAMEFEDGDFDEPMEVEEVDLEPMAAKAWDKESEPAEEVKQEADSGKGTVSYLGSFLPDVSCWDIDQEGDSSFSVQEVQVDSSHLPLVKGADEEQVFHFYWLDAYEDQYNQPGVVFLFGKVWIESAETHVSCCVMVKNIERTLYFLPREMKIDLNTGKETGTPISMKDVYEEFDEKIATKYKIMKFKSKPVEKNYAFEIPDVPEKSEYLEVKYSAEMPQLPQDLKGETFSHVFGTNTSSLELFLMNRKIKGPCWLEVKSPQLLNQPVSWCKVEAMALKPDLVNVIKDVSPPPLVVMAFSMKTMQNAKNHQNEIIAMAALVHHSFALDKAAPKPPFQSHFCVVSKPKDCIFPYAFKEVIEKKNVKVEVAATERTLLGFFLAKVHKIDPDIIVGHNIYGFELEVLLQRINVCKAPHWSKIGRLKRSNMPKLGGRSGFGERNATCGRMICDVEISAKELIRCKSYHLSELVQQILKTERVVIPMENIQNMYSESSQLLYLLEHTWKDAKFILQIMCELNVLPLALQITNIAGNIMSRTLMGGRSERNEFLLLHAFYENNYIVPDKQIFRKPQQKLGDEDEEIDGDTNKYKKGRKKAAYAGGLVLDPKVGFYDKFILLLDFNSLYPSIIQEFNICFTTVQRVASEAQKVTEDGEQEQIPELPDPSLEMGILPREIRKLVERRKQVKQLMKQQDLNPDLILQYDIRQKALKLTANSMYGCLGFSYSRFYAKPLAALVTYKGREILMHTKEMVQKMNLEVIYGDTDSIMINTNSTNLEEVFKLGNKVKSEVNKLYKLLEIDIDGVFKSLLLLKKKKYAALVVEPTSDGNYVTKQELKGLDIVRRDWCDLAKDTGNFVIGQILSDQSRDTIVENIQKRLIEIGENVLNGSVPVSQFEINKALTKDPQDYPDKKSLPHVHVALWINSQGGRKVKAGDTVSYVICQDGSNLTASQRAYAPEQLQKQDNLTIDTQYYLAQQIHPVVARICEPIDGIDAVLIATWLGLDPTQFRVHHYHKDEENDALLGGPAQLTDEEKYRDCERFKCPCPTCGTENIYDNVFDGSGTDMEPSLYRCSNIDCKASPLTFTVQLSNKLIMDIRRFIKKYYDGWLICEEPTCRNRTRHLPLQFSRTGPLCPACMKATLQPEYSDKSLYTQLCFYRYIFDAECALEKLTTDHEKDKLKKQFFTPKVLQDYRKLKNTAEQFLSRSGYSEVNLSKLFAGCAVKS

[7] = fCaverage in CD-1 mouse; assay type: ADME
[8] = Inhibition of MMEJ-mediated DNA repair in CRSIPRR/Cas9-induced wildtype human HCT-116 cells incubated for 24 hrs by PCR analysis; assay type: functional, cell-based
[9] = AUC in CD-1 mouse at 20 mg/kg, po measured upto 24 hrs by reverse phase LCMS analysis; assay type: ADME, organism-based; parameters: time < 24 hrs, dose 20 mg/kg, route po; settings: in vivo

In the case of `Nc1ccc(C#CCN(C(=O)Cc2ncc(C(F)(F)F)cc2C(F)(F)F)c2ccc(F)cc2)nn1`, the IC50 [1] is reported as 2.15 µM, the Vdss [2] is reported as 1.1 L/kg and the AUC at 168 h [3] is reported as 14.7 µM·h. The Activity [4] was “Non-Toxic”, the IC50 [5] was greater than 100 µM and the IC50 [6] was greater than 100 µM. For the same compound, the “f(Cave)” value [7] was 107 nM, the IC50 [8] was 0.45 µM and the AUC [9] was 49.7 µM·h.
